Measurements reported in patent US20080242681A1, “N-4-(6-(Hetero)Aryl-Pyrimidin-4-Ylaminophenyl)-Benzenesulfonamides as Kinase Inhibitors” (Altana Pharma AG, priority 2004, published 2008).
Counter-ions that a name gives are not always drawn.

Experiments:
PKCβ1 = biological target: T1, PKCβ1 (Homo sapiens, UniProt P05771); experiment: Protein Kinase Cβ1 assay (SPA); type: biochemical; details: human recombinant PKCβ1, SPA, biotinylated PKCα pseudosubstrate, 0.5 mM CaCl2; read-out: IC50, inhibition of PKC β1
T1 construct: purchased Panvera
Procedure: (§1) The compounds of formula 1 are tested for their activity on different protein kinases and PKC isoforms using a scintillation proximity assay (SPA, Amersham International plc). ^33P-labeled peptides are captured onto streptavidin coated yttrium silicate SPA beads. β-particles, emitted from the captured ^33P-labeled substrate in close proximity to the bead are able to excite the scintillant, resulting in the generation of quantifiable light. The assay is performed in a 96-well polystyrene microtiterplate (1450-514, Isoplates, Wallac, Turku, Finland). The reaction mixture (50 μl) contains 10 μl of the test compound together with 10 μl of the relevant kinase, diluted in the relevant dilution buffer, 5 μl of 10 μM phorbol myristate acetate (PMA) in H2O, 5 μl of 1.6 mM phosphatidylserine (Sigma-Aldrich Chemie GmbH, Stein-heim, Germany) in 20 mM Tris/HCL buffer pH 7.4, 5 μl of 0.3% BSA in H2O, 5 μl of 30 μM relevant substrate and 10 μl of 5 μM ATP and 0.1 μCi of ^33P-ATP (Amersham, Freiburg, Germany) in 200 mM Tris/HCL pH 7.5 and 200 mM MgCl2. Incubation is performed for 40 min at room temperature (RT) without shaking. Reaction is stopped by adding 150 μl of cold stop solution containing 10 mM ATP, 5 mM EGTA pH 7.5, 0.1% Triton X-100 and 0.2 mg streptavidin coated yttrium silicate SPA beads (Amersham, RPNQ 0012). The sealed plate is incubated for 60 min at RT. Thereafter the MTP is counted in a Microbeta Jet (Wallac). IC50 measurement is performed on a routine basis by incubation a serial dilution of inhibitor at concentrations ranging between 0.01 and 100 μM according to the method described above. Background values are the signals of the reaction mixture without addition of the relevant kinase and are subtracted from all values. 100% values are the signals of the reaction mixture without addition of inhibitors.
Dependent on the efficacy of the inhibitors In the various test systems, corresponding IC50 values are calculated from concentration-inhibition curves by nonlinear regression analysis using the program GraphPad Prism (GraphPad Software Inc., San Diego, Calif.).
Human recombinant PKCβ1 was obtained from Panvera and is used under the assay conditions as described above (Section A.1). The enzyme is diluted in PKC dilution buffer containing 1 mM Hepes pH 7.4, 0.5 mM DTT and 0.001% Triton X-100. The assay additionally contains 0.5 mM CaCl2. The kinase reaction is performed with the biotinylated PKCα pseudosubstrate solved in H2O. The examples 29, 45, 52, 128 and 139 inhibit PKC β1 in this assay with an IC50 between 2 and 40 μM.

Lck = biological target: T2, Lck (Homo sapiens, UniProt P06239); experiment: Lck (p56Lck) assay (SPA); type: biochemical; details: human recombinant Lck, read-out: IC50, inhibition of Lck
T2 construct: purchased Upstate (Dundee, UK)
Procedure: The compounds of formula 1 are tested for their activity on different protein kinases and PKC isoforms using a scintillation proximity assay (SPA, Amersham International plc). ^33P-labeled peptides are captured onto streptavidin coated yttrium silicate SPA beads. β-particles, emitted from the captured ^33P-labeled substrate in close proximity to the bead are able to excite the scintillant, resulting in the generation of quantifiable light. The assay is performed in a 96-well polystyrene microtiterplate (1450-514, Isoplates, Wallac, Turku, Finland). The reaction mixture (50 μl) contains 10 μl of the test compound together with 10 μl of the relevant kinase, diluted in the relevant dilution buffer, 5 μl of 10 μM phorbol myristate acetate (PMA) in H2O, 5 μl of 1.6 mM phosphatidylserine (Sigma-Aldrich Chemie GmbH, Stein-heim, Germany) in 20 mM Tris/HCL buffer pH 7.4, 5 μl of 0.3% BSA in H2O, 5 μl of 30 μM relevant substrate and 10 μl of 5 μM ATP and 0.1 μCi of ^33P-ATP (Amersham, Freiburg, Germany) in 200 mM Tris/HCL pH 7.5 and 200 mM MgCl2. […] Thereafter the MTP is counted in a Microbeta Jet (Wallac). […]
Human recombinant Lck was obtained from Upstate (Dundee, UK) and is used in a scintillation proximity assay described in Section A.1. […] Thereafter the MTP is counted in a Microbeta Jet (Wallac). […] IC50 values are calculated from the graph by sigmoidal curve fitting. […]

responder T cells = experiment: Mixed lymphocyte reaction (MLR), T cell proliferation; type: cell-based; details: [3H]thymidine incorporation after 48 h, read-out: IC50, inhibition of MLR-mediated T-cell proliferation
Procedure: For MLR cultures 4×10^5 responder T cells are incubated in duplicates with 2×10^5 mitomycin C-treated allogeneic stimulator T cells in a total volume of 200 μl RPMI 1640 medium supplemented with 10% FCS, 2 mM L-glutamine, 100 U/ml penicillin and 100 μg/ml streptomycin (Gibco Life Technologies) in 96 well tissue culture plates (655180, flat bottom, Greiner). Cells are maintained at 37° C. in a humidified atmosphere of 5% CO2. After 48 h of growth, cells are pulsed with 1 μCi [^3H]thymidine and incorporation of [^3H]thymidine is measured with a Topcount radioactive counter (Packard). To investigate the effect of a test compound on MLR-mediated T cell proliferation six three-fold dilution steps in duplicates per test compound are performed (final DMSO concentration 0.1%). Low control values are the proliferation of responder cells alone; high controls are from mixed lymphocyte cells without any test samples. Low controls are subtracted from all values. The inhibition obtained in the presence of a test compound is calculated as percent Inhibition of the high control. The concentration of test compounds resulting in 50% inhibition (IC50) is determined from the dose-response curves. The examples 91, 128, 133 and 137 inhibit MLR-mediated T-cell proliferation in this assay with an IC50<1 μM.

Rsk1 = biological target: T3, Rsk1 (Homo sapiens, UniProt Q15418); experiment: Rsk1 KinaseProfiler assay (Upstate); type: biochemical; details: human recombinant Rsk, externally tested (IC50Profiler, Upstate), 10 μM ATP; read-out: IC50, inhibition of Rsk1
T3 construct: purchased Upstate ltd, Dundee, UK (external KinaseProfiler service)
Procedure: To investigate the effect of a test compound on p90 ribosomal S6 kinase (Rsk) family, the compounds are externally tested in KinaseProfiler assay (Upstate ltd, Dundee, UK) described in product guide brochure. In brief, in a final reaction volume of 25 μl, 5-10 mU of human recombinant Rsk are incubated with 8 mM MOPS pH 7.0, 0.2 mM EDTA, 30 μM KKKNRTLSVA, 10 mM MgAcetate and 10 μM [γ-33P-ATP]. The reaction is initiated by addition of the MgATP mix. After incubation for 40 minutes at RT, the reaction is stopped by the addition of 5 μl of a 3% phosphoric acid solution. 10 μl of the reaction is then spotted onto P30 filtermat and washed three times for 5 minutes in 75 mM phosphoric acid and once in methanol prior to drying and scintillation counting. The IC50 value is estimated by preparing a 10 point curve using a ½ log dilution series (IC50Profiler, Upstate). The examples 129, 431 and 173 inhibit Rsk1 in this assay with an IC50<1 μM.

PKCι = biological target: T4, PKCι (Homo sapiens, UniProt P41743); experiment: Protein Kinase C ι assay (SPA); type: biochemical; details: human recombinant PKCι from Sf21 insect cells, absence of PMA and phosphatidylserine, read-out: IC50, inhibition of PKC ι
T4 construct: made in house; host or cells: Sf21 insect cells
T4 sequence (P41743 1-596): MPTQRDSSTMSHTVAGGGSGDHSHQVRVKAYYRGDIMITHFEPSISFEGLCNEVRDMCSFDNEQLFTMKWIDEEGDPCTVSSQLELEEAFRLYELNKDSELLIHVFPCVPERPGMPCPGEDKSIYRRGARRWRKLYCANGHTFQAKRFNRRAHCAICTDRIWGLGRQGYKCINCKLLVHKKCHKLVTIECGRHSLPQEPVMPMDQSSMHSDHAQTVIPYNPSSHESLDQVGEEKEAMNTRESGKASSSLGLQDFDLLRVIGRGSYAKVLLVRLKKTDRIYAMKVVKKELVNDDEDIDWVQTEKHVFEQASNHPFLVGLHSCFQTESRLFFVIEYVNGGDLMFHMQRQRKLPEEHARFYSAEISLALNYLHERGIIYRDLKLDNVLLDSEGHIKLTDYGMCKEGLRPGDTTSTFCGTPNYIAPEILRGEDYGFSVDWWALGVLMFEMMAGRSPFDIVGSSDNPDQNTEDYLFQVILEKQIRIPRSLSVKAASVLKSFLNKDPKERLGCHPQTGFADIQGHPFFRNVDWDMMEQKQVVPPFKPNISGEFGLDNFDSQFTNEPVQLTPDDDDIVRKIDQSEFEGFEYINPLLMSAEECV
Procedure: as §1
Dependent on the efficacy of the inhibitors In the various test systems, corresponding IC50 values are calculated from concentration-inhibition curves by nonlinear regression analysis using the program GraphPad Prism (GraphPad Software Inc., San Diego, Calif.). […]

T3 sequence (Q15418 whole entry): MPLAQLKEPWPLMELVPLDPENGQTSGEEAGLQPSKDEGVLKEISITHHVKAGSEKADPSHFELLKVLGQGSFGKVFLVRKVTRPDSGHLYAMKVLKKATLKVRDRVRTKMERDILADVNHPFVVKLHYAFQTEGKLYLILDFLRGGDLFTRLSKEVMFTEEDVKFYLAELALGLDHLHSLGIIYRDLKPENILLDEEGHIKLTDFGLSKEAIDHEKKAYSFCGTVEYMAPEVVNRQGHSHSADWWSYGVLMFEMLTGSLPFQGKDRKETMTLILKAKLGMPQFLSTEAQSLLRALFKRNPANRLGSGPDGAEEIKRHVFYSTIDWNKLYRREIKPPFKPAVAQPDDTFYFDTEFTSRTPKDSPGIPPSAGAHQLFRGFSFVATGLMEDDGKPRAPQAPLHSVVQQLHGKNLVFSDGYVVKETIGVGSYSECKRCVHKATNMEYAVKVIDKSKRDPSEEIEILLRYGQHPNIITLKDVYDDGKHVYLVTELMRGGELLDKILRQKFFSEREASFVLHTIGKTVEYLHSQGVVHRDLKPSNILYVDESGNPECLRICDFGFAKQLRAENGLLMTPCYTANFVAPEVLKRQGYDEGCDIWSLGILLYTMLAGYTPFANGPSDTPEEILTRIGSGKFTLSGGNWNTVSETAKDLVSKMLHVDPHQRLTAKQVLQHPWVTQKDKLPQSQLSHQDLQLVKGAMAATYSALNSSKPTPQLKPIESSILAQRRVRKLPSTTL
T1 sequence (P05771 whole entry): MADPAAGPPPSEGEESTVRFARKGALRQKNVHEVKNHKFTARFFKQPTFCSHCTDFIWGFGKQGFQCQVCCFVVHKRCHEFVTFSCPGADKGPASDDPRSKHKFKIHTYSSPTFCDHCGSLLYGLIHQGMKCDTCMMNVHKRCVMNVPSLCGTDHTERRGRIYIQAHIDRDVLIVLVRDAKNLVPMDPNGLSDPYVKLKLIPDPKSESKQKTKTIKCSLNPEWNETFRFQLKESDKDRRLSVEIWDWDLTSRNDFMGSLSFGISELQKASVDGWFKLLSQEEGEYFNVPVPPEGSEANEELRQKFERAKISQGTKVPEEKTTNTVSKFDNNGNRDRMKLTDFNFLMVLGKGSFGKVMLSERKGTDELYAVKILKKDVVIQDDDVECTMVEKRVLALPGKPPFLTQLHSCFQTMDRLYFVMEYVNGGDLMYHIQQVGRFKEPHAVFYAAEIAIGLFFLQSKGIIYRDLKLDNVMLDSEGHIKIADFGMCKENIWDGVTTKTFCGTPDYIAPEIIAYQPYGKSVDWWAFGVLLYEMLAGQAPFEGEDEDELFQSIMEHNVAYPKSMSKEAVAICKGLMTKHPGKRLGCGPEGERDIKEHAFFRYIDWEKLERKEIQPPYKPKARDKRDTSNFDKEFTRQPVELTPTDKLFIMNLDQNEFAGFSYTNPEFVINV
T2 sequence (P06239 whole entry): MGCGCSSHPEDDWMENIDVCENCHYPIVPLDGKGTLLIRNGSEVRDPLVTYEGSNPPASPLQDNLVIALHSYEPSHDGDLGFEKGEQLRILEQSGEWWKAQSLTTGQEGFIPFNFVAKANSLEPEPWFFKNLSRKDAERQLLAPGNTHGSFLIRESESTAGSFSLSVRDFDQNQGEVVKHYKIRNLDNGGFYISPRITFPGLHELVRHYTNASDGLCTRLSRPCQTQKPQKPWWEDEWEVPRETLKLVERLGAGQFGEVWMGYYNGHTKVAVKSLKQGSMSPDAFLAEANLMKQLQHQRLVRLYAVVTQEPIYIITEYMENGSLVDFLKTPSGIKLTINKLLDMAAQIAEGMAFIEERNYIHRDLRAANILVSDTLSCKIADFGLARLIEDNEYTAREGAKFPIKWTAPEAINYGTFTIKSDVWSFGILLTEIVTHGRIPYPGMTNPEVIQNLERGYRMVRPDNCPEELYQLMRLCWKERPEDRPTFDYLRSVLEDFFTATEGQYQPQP

Row | IC50 (PKCβ1) [µM] | IC50 (Lck) [µM] | IC50 (Rsk1) [nM] | IC50 (PKCι) [µM] | Structure (SMILES) | IC50 (responder T cells) [nM]
1 | 2 to 40 | < 3 |  |  | CN(C)CCCn1ccc2cc(-c3cc(Nc4ccc(NS(=O)(=O)c5c(F)cccc5F)cc4)ncn3)ccc21 [Example 128, N-(4-{6-[1-(3-Dimethylamino-propyl)-1H-indol-5-yl]-pyrimidin-4-ylamino}-phenyl)-2,6-difluoro-benzenesulfonamide] | < 1000
2 |  |  | < 1000 |  | CN(C)CCCn1ccc2cc(-c3cc(Nc4ccc(NS(=O)(=O)c5ccccc5F)cc4)ncn3)ccc21 [Example 129, N-(4-{6-[1-(3-Dimethylamino-propyl)-1H-indol-5-yl]-pyrimidin-4-ylamino}-phenyl)-2-fluorobenzenesulfonamide] | 
3 |  |  | < 1000 | 7 to 34 | CCN(CC)CCCn1cc(-c2cc(Nc3ccc(NS(=O)(=O)c4c(F)cccc4F)cc3)ncn2)c2ccccc21 [Example 173, N-(4-{6-[1-(3-Diethylamino-propyl)-1H-indol-3-yl]-pyrimidin-4-ylamino}-phenyl)-2,6-difluoro-benzenesulfonamide formic acid salt] | 
